This is an account of results in ChEMBL document CHEMBL1136569, “Quinolone-based IMPDH inhibitors: introduction of basic residues on ring D and SAR of the corresponding mono, di and benzofused analogues” (Bioorg Med Chem Lett, 2003).

Broadly, the IC50 is the point on the concentration scale where inhibition reaches its midpoint.

Each structure is given as a SMILES string.

The target in assay [1] is Inosine-5'-monophosphate dehydrogenase 2 (Homo sapiens, UniProt P12268). Description: Inhibitory activity against inosine monophosphate dehydrogenase IMPDH II.
Assay [2] deals with CCRF-CEM. Put plainly: Inhibitory activity against proliferation of CEM cell line. The format is functional, cell-based, Homo sapiens.
The nature of assay [3]: Inhibitory activity against proliferation of peripheral blood mononuclear cells. The format is functional, Homo sapiens.

In the case of `COc1cc2nc(-c3ccc4c(c3)C(N3CCC3)CC4)cc(O)c2cc1-c1cnco1` (stereo not given), the IC50 in assay [1] was found to be 6 nM; in assay [2] (Homo sapiens, CCRF-CEM), 800 nM. Taken in the same sequence, the figures for `COc1cc2nc(-c3ccc4c(c3)C(N(C)C(C)=O)CC4)cc(O)c2cc1-c1cnco1` (stereo not given) were 18 nM and 1100 nM.

For the molecule `COc1cc2nc(-c3ccc4c(c3)C(N(C)C)CC4)cc(O)c2cc1-c1cnco1` (single isomer, unassigned; enantiomer B), the IC50 was under 5 nM in assay [1], 320 nM in assay [3] and 550 nM in assay [2] (ccrf-cem).

On to `COc1cc2nc(-c3ccc4c(c3)CN(C)C4)cc(O)c2cc1-c1cnco1`, for which the IC50 is 14 nM in assay [1] and 1100 nM in assay [2] (Homo sapiens, CCRF-CEM). As to `COc1cc2nc(-c3cccc(N4CCOCC4)c3)cc(O)c2cc1-c1cnco1`, in assay [1], the IC50 is under 50 nM. Take `COc1cc2nc(-c3ccc4c(c3)C(N(C)C)CC4)cc(O)c2cc1-c1cnco1` (single isomer, unassigned; Enantiomer A): the IC50 is under 5 nM in assay [1], 120 nM in assay [3] and 270 nM in assay [2] (ccrf-cem). With `COc1cc2nc(-c3ccc4c(c3)C(O)CCC4)cc(O)c2cc1-c1cnco1` (stereo not given), the IC50 amounted to 83 nM in assay [1] and 3400 nM in assay [2] (Homo sapiens, CCRF-CEM). In assay [3] (Homo sapiens), `COc1cc(NC(=O)Nc2cccc(CNC(=O)O[C@H]3CCOC3)c2)ccc1-c1cnco1` [MERIMEPODIB] registered an IC50 of 170 nM.

Regarding `COc1cc2nc(-c3ccc(C)c(N4CCOCC4)c3)cc(O)c2cc1-c1cnco1`, the IC50 in assay [1] was found to be 5 nM; in assay [2] (Homo sapiens, CCRF-CEM), 650 nM. As to `COc1cc2nc(-c3ccc4c(c3)C(N3CCCC3)CCO4)cc(O)c2cc1-c1cnco1` (stereo not given), the IC50 in assay [1] was 33 nM; in assay [2] (Homo sapiens, CCRF-CEM), 1400 nM. `COc1cc2nc(-c3ccc4c(c3)C(OC(=O)N(C)C)CC4)cc(O)c2cc1-c1cnco1` (stereo not given) registered an IC50 in assay [1] of 11 nM.

Take `COc1cc2nc(-c3ccc4c(c3)C(O)CC4)cc(O)c2cc1-c1cnco1` (stereo not given): the concentration for half-maximal inhibition (IC50) came out at 28 nM in assay [1] and 3100 nM in assay [2] (Homo sapiens, CCRF-CEM).

For the molecule `COc1cc2nc(-c3ccc(OC)c(N4CCN(C)CC4)c3)cc(O)c2cc1-c1cnco1`, the IC50 stood at 140 nM in assay [1] and 10000 nM in assay [2] (Homo sapiens, CCRF-CEM). `COc1cc2nc(-c3ccc4c(c3)C(=O)CCC4)cc(O)c2cc1-c1cnco1`: the IC50 in assay [1] was under 10 nM; in assay [2] (Homo sapiens, CCRF-CEM), 520 nM. The like results for `COc1cc2nc(-c3ccc4c(c3)C(N(C)C)CCO4)cc(O)c2cc1-c1cnco1` (stereo not given) were, in that order, 21 nM and 720 nM.

As to `COc1cc2nc(-c3cccc(N4CCCC4)c3)cc(O)c2cc1-c1cnco1`, the IC50 is 25 nM in assay [1] and 2700 nM in assay [2] (Homo sapiens, CCRF-CEM). The like results for `COc1cc2nc(-c3ccc(C)c(OCC4CCCO4)c3)cc(O)c2cc1-c1cnco1` (stereo not given) were, in that order, under 5 nM and 710 nM. The like results for `COc1cc2nc(-c3ccc4c(c3)C(N(C)C(=O)Cn3ccnc3)CC4)cc(O)c2cc1-c1cnco1` (stereo not given) were, in that order, 68 nM and over 10000 nM. Taken in the same sequence, the figures for `COc1cc2nc(-c3ccc4c(c3)C(N3CCOCC3)CC4)cc(O)c2cc1-c1cnco1` (stereo not given) were 20 nM and 1100 nM. Take `COc1cc2nc(-c3cccc(N4CCN(C)CC4)c3)cc(O)c2cc1-c1cnco1`: the IC50 in assay [1] turned out to be 16 nM; in assay [2] (Homo sapiens, CCRF-CEM) it was 1700 nM.

On to `COc1cc2nc(-c3ccc4c(c3)C(N3CCCC3)CC4)cc(O)c2cc1-c1cnco1` (stereo not given), for which the IC50 in assay [1] turned out to be 13 nM; in assay [2] (Homo sapiens, CCRF-CEM), 670 nM. Taken in the same sequence, the figures for `COc1cc2nc(-c3ccc(C)c(N4CCN(C)CC4)c3)cc(O)c2cc1-c1cnco1` were 26 nM and 1100 nM. For the molecule `COc1cc2nc(-c3ccc(N4CCOCC4)cc3)cc(O)c2cc1-c1cnco1`, the IC50 in assay [1] turned out to be 21 nM; in assay [2] (Homo sapiens, CCRF-CEM), 1100 nM. The like results for `COc1cc2nc(-c3ccc4c(c3)C([N+](C)(C)C)CC4)cc(O)c2cc1-c1cnco1` (stereo not given) were, in that order, 30 nM and over 10000 nM. As for `COc1cc2nc(-c3ccc4c(c3)[C@@H](N(C)C)[C@H](OC)C4)cc(O)c2cc1-c1cnco1`, the IC50 in assay [1] came to 15 nM; in assay [2] (Homo sapiens, CCRF-CEM) it was 700 nM. Turning to `COc1c(C)c2c(c(O)c1C/C=C(\C)CCC(=O)O)C(=O)OC2` [MYCOPHENOLIC ACID], the midpoint of inhibition in assay [3] (Homo sapiens), the IC50, lay at 600 nM.

Turning to `COc1cc2nc(-c3ccc4c(c3)C(N(C)C(=O)CN3CCOCC3)CC4)cc(O)c2cc1-c1cnco1` (stereo not given), the IC50 in assay [1] came out at 18 nM; in assay [2] (Homo sapiens, CCRF-CEM), 1800 nM. Consider `COc1cc2nc(-c3ccc4c(c3)N(C(C)=O)CCO4)cc(O)c2cc1-c1cnco1`, for which the IC50 in assay [1] worked out at 14 nM; in assay [2] (Homo sapiens, CCRF-CEM), 1300 nM. The like results for `COc1cc2nc(-c3ccc(C)c(N4CCCC4)c3)cc(O)c2cc1-c1cnco1` were, in that order, 15 nM and 780 nM.

For `COc1cc2nc(-c3ccc(C)c(OCCN4CCOCC4)c3)cc(O)c2cc1-c1cnco1`, the IC50 in assay [1] was under 5 nM; in assay [2] (Homo sapiens, CCRF-CEM), 600 nM. The like results for `COc1cc2nc(-c3ccc4c(c3)C(N(C)C)CCC4)cc(O)c2cc1-c1cnco1` (stereo not given) were, in that order, 15 nM and 370 nM. Turning to `COc1cc2nc(-c3ccc(N4CCN(C)CC4)cc3)cc(O)c2cc1-c1cnco1`, the IC50 was found to be 53 nM in assay [1] and 2200 nM in assay [2] (Homo sapiens, CCRF-CEM). Taken in the same sequence, the figures for `CNC1CCc2ccc(-c3cc(O)c4cc(-c5cnco5)c(OC)cc4n3)cc21` (stereo not given) were 12 nM and 1600 nM. The like results for `COCC(=O)N(C)C1CCc2ccc(-c3cc(O)c4cc(-c5cnco5)c(OC)cc4n3)cc21` (stereo not given) were, in that order, 12 nM and 1100 nM. The like results for `COc1cc2nc(-c3ccc4c(c3)CCC4N(C)C)cc(O)c2cc1-c1cnco1` (stereo not given) were, in that order, 55 nM and 4100 nM. On to `COc1cc2nc(-c3ccc4c(c3)C(N(C)C)CC4)cc(O)c2cc1-c1cnco1` (stereo in doubt; 27), for which the IC50 in assay [1] was 6 nM; in assay [2] (ccrf-cem), 290 nM.
